Laboratory results as given in patent publication US20080311589A1, “METHOD OF HIGH-THROUGHPUT SCREENING OF MOLECULES AND COMPOUNDS FOR THEIR EFFECTS ON BIOLOGICAL AND CHEMICAL PROCESSES” (priority 1999, published 2008).
“Also recorded” adds a separate entry of the source.

Assays:
[1] = biological target: T1, conventional kinesin (Homo sapiens, UniProt P33176); test: microtubule gliding driven by conventional kinesin; assay type: biochemical; details: 200 μM
T1 sequence (P33176 1-963): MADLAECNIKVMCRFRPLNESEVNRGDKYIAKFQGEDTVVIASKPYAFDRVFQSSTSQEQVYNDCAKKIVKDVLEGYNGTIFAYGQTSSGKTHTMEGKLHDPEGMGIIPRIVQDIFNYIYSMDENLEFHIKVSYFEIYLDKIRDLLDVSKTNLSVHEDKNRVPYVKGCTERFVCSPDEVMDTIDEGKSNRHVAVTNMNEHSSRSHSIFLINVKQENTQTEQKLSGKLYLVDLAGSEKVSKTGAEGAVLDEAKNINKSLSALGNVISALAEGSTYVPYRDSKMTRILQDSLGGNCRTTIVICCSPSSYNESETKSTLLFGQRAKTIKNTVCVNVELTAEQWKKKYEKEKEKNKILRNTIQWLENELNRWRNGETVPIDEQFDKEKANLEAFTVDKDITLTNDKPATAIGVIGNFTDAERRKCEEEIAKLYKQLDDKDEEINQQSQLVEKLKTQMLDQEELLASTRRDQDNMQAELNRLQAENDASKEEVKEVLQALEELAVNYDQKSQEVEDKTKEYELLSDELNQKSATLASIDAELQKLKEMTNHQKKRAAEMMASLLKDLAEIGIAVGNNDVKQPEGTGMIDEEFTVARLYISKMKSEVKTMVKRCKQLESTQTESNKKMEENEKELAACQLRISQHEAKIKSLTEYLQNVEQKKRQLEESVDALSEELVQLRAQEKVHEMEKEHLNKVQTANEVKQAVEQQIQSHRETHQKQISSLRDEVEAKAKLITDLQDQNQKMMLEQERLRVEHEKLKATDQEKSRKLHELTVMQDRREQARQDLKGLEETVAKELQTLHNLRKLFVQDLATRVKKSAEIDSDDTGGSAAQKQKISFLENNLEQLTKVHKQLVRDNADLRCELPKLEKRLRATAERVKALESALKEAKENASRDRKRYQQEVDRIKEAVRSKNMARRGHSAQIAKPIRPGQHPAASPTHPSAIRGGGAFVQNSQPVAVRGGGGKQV
Method: FIG. 26. […] Conventional kinesin motility was not inhibited in the same assay. A. Model for spindle bipolarity. Plus-end directed motors, such as Eg5 are thought to be involved in the separation of the centrosomes and the establishment of a symmetric spindle axis. B. Inhibition of the kinesin Eg5 results in monastrol spindles. Microtubules, green; chromosomes, blue. Eg5 is depicted as homotetramer (9). C. […] After imaging Eg5 driven microtubule gliding in the presence of monastrol (200 μM), the same assay chamber was depleted of compound and the microtubule gliding recorded (Washout). […] D. Chemical structures of monastrol and DHP2.
Eg5 is a member of the kinesin superfamily, which includes over 100 homologous proteins involved in organelle transport, membrane organization, and assembly and maintenance of mitotic spindles (Vale et al., Annu. Rev. Cell. Dev. Biol. 13:745, 1997). To test whether monastrol affects other motor proteins, we first assayed its ability to inhibit microtubule gliding driven by conventional kinesin in vitro. The N-terminal motor domain of conventional kinesin shares 33% sequence identity with the Eg5 motor domain (Kapoor et al., Proc. Natl. Acad. Sci. USA, 1999). […] We next investigated whether monastrol disturbs the distribution of lysosomes or the Golgi apparatus in vivo. […]

[2] = test system: Golgi apparatus or lysosomes; test: distribution of lysosomes and Golgi apparatus; assay type: cell-based; details: concentrations that caused strong spindle defects; interphase cells
From the text: We investigated the phenotype of mammalian cells (BS-C-I) treated with the compounds of group III. Live images were taken as described previously (Cramer et al., Curr. Op. Cell Biol. 6:82, 1994); for immunofluoresence, the cells were stained with a Golgi-specific antibody (anti-Golgi 58K protein antibodies [Sigma]) or with anti-α-tubulin antibodies (DM1 A [Sigma]); actin was visualized using TRIC-conjugated phalliodin (Sigma); lysosomes were stained with LysoTracker (Molecular Probes; Palmiter et al., EMBO J. 15:1784, 1996). Our examination of the distribution of microtubules, actin, and chromatin in fixed cells by fluorescence microscopy allowed us to divide the small molecules into three classes. Twenty-seven had no observable effect on the microtubule and actin cytoskeleton or on cheomosome distribution. Consistent with the data from the cytoblot assay we observed an increase in the number of normal appearing mitotic cells. These compounds may increase the mitotic index by perturbing the function of proteins that regulate progression through the cell cycle, e.g., anaphase regulators, rather than structural or mechanochemical components of the mitotic spindle. It is also possible that these compounds have a subtle effect on cytoskeletal dynamics or chromosome organization that may not be observable in fixed cells. […]

Substance: monastrol
- inhibition of microtubule gliding driven by conventional kinesin [1]: no inhibition; also recorded: does not inhibit
- localization and organization of Golgi apparatus or lysosomes [2]: did not affect localization and organization of the Golgi apparatus or lysosomes in interphase cells
